Data from US7125995B2, “Substituted amidoalkyl uracils and their use as inhibitors of the poly(adp-ribose) synthetase (PARS)” (Bayer Aktiengesellschaft, priority 2000, dated 2006).
Where two headings read alike, the source gives them in different places.

What was measured:
MHEC5-T cells = experiment: Cell protection assay (in vitro), H2O2-induced cell death, Alamar blue; assay type: cell-based; conditions: 3 mM H2O2, 5 hours
Procedure: In accordance with a method described by Bowes [Bowes et al., Br. J. Pharmacol., 124, 1760–1766 (1998)], the ability of PARS inhibitors to protect cells against cell death induced by incubation with H2O2 is examined in a cell protection assay. Incubation of endothelial cells with H2O2 results in the generation of DNA strand breaks which in turn activate PARS, resulting in a drastic energy decrease in the cells and in cell death. Living cells are quantified by a fluorimetric redox indicator (Alamar blue), which is converted in the electron transport system of the mitochondria.
Specifically, 7500 MHEC5-T cells/well (DSM ACC 336; German collection of microorganisms and cell cultures) are sown in 4 replications on a 96-well plate. After 24 hours, the cells are incubated with 3 mM aqueous H2O2 solution and differing concentrations of the substances in the presence of 6% by volume of Alamar blue solution in the medium at 37° C. for 5 hours. The reference substance used is 10 μM 1,5-dihydroxyisoquinoline (DHCH) solution. After the incubation, the fluorescence is measured at an excitation wavelength of 530–560 nm and an emission wavelength of 590 nm. The percentage for the cell protection is calculated as the difference between the living cells treated only with H2O2 and the cells treated with H2O2 and PARS inhibitors. The internal standard used is 10 μM DHCH, which is defined as 100% protection. The results obtained for the other substances are compared to this value.
The EC50 values indicate the concentration at which 50% of maximum cell protection is reached, maximum protection by 10 μM DHCH being defined as 100%.

human PARS enzyme = molecular target: T1, human PARS enzyme (Homo sapiens, UniProt P09874); experiment: PARS inhibition test (in vitro); assay type: biochemical; conditions: recombinant human PARS, [14C]-NAD+, 10 min room temperature
T1 construct: made in house; host or cells: baculovirus expression system (Bac-To-Bac, Life Technologies)
Procedure: To this end, recombinantly expressed (Bac-To-Bac, Baculo virus expression system; Instruction Manual; Life Technologies) human PARS enzyme is activated in a buffer which contains radioactively labelled [^14C]—NAD^+. The poly(ADP-ribose) units that are synthesized are precipitated using trichloroacetic acid, and the proportion of labelled protein is determined by scintillation measurements. Incubation of PARS with inhibitors leads to a decrease in the proportion of labelled protein and thus to a reduced radioactivity.
• Buffer: 100 mM 2-amino-2-hydroxymethyl-1,3-propanediol (tris)-HCl, pH 7.4 • 10 mM MgCl2 • 1 mM dithiothreitol (DTT) • Tris-HCl and MgCl2 are dissolved in water, DTT is added from an aqueous 100 mM stock solution (stored at −20° C.) and the pH is adjusted with concentrated HCl to 7.4. • DNA: 1 mg/ml of calf thymus DNA • 1 mg/ml of calf thymus DNA (from Sigma) is dissolved in water and sonicated to induce strand breaks. 500 μl aliquots were stored at −20° C. • Histones: 10 mg/ml of type IIA histones, calf thymus • 10 mg/ml of lyophilized histones (from Sigma) are dissolved in water. • 500 μl aliquots are stored at −20° C. • NAD^+ Mix: 2 mM NAD^+ in buffer, • NAD^+ (from Sigma) solutions are prepared freshly before each test. • In each case 3 μl of labelled [^14C]—NAD^+ (2.8 kBq, from Amersham) are added to 7 μl of cold NAD^+ solution. • Trichloroacetic acid (TCA): TCA is stored at 4° C. as a 10% strength by weight solution. • PARS: Human PARS protein is expressed recombinantly in the baculovirus system (Bac-To-Bac, Baculo virus expression system; Instruction Manual; Life Technologies) and purified. 500 μl aliquots are stored at −80° C. Methods
The compounds to be tested are dissolved in DMSO (dimethyl sulphoxide) at a concentration of 10 mM. The assay is carried out in deep 96-well plates. […] The mixture is incubated at room temperature for 10 min, and 1 ml of ice-cold TCA solution is then added, and the precipitated labelled proteins are sucked onto a filter paper (printed filter mat A; from Wallac) using a harvester (from Scatron). The filter is dried, sealed together with a scintillation sheet (Multilex A; from Wallac) and measured in a β counter for 1 min per well.
In addition to the substances described in this application, the known PARS inhibitor 1,5-dihydroxyisoquinoline (DHCH) is tested as reference substance. The results of the test are stated as IC50 values for the inhibition of PARS.

[1] = 37° C., 50% of maximum cell protection, 10 μM DHCH defined as 100%, read-out: Cell protection (in vitro) EC50

T1 sequence (P09874 whole entry): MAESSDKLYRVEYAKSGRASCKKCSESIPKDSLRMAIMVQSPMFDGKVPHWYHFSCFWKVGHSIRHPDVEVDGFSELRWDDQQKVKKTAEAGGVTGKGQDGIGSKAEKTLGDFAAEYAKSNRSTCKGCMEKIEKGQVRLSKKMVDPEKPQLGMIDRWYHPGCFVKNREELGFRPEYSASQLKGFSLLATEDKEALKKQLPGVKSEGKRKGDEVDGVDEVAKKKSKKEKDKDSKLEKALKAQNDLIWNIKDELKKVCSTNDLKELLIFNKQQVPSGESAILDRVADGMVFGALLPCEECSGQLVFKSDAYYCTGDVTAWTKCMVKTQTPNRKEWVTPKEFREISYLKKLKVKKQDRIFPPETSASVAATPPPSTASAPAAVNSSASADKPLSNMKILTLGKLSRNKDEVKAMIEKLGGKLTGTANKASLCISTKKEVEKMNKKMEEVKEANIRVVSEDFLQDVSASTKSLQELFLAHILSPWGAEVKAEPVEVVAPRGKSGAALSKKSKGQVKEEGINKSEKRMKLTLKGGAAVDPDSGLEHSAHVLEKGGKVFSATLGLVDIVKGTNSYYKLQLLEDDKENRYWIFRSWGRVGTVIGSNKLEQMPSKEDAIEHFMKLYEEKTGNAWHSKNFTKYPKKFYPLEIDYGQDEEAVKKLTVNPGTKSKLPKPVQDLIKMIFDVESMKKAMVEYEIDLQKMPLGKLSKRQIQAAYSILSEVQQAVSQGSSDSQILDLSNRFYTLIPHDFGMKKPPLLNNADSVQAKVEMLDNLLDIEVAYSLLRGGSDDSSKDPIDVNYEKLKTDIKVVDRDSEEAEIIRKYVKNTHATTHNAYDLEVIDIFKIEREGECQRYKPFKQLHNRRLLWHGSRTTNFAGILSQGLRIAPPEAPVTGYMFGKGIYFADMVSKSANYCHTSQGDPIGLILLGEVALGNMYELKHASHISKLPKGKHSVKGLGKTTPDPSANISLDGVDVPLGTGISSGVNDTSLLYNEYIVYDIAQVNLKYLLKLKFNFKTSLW

| IC50 (human PARS enzyme) | Compound | EC50 (MHEC5-T cells; reference substance, read-out: Cell protection EC50 value) | EC50 (MHEC5-T cells; [1]) |
| --- | --- | --- | --- |
| – | Oc1cccc2c(O)nccc12 [DHCH, 1,5-dihydroxyisoquinoline, reference compound] | 2 µM | – |
| – | O=C(CCn1c2c(c(=O)[nH]c1=O)CSCC2)NCC(=O)c1ccc(-c2cnccn2)cc1 [Example 5, 3-(2,4-Dioxo-3,4,7,8-tetrahydro-2H-thiopyrano [4,3-d]pyrimidin-1(5H)-yl)-N-(2-oxo-2-[4-(2-pyrazinyl)phenyl]ethyl)propanecarboxamide] | – | 0.07 µM |
| 0.0085 µM | O=C(CCn1c2c(c(=O)[nH]c1=O)CSCC2)NCC(=O)c1ccc2ccccc2c1 [Example 6] | – | – |
| 0.012 µM | O=C(CCn1c2c(c(=O)[nH]c1=O)CCCC2)NCC(=O)c1ccc(-c2ccncc2)cc1 [Example 7] | – | 0.09 µM |
| – | O=C(CCn1c2c(c(=O)[nH]c1=O)CSCC2)NCC(=O)c1ccc(-c2ccc3c(c2)OCO3)cc1 [Example 12] | – | 0.095 µM |
| 0.015 µM | Cc1csc2c(N3CCN(C(=O)CNC(=O)CCn4c5c(c(=O)[nH]c4=O)CSCC5)CC3)ncnc12 [Example 15] | – | 0.05 µM |
| – | O=C(CCn1c2c(c(=O)[nH]c1=O)CSCC2)NCC(=O)N1CCN(c2ncc(Br)cn2)CC1 [Example 24] | – | 0.02 µM |
| – | O=C(CCn1c2c(c(=O)[nH]c1=O)CSCC2)NCC(=O)N1CCN(c2ccccc2)CC1 [Example 30] | – | 0.1 µM |
| – | O=C(CCn1c2c(c(=O)[nH]c1=O)CCCC2)NCC(=O)N1CCN(c2ccc([N+](=O)[O-])cc2)CC1 [Example 32] | – | 0.2 µM |
| – | O=C(CCn1c2c(c(=O)[nH]c1=O)CCCC2)NCC(=O)N1CCN(c2ncc(F)cn2)CC1 [Example 40] | – | 0.09 µM |
| 0.08 µM | O=C(CCn1c2c(c(=O)[nH]c1=O)CCCC2)NCC(=O)N1CCN(c2ccccc2C(F)(F)F)CC1 [Example 54] | – | – |
